Tested on: HCC1937 cells
Assay: Cytotoxicity of 220 nm filtrates
Assay type: cell-based
Description: Figure 1 AG-08 mediated cytotoxicity relies on the supramolecular structures. (A) Structure of AG-08. (B) The scanning transmission electron micrograph of 16 µM AG-08 in PBS. Figure is a representative image of stained sample with uranyl acetate (5683 × magnification; scale bar 600 nm). (C) After 3 h incubation of Nile red solution with AG-08 or AG, fluorescence intensity of Nile red was measured. (D) AG-08, Staurosporine (Sta) or vehicle samples prepared in the cell condition medium was filtrated by 220 nm filter and HCC1937 cells were exposed to the filtrates. After 24 h, the viability of cells was measured and represented as a percentage of that of the vehicle control. The error bars represent mean value ± s.d. (n = 3). *p < 0.05, **p < 0.005, ***p < 0.001. (E) Tween 20 (1:40,000) was added to the fresh medium before addition of 8 μM AG-08 or vehicle. Then cell medium was replaced with this fresh medium. Cell viability was detected after 24 h incubation. […] TEXT PRINTED IN THE PICTURE: (F) no label printed: Diameter: 153.2±4.6; polydispersity index: 0.218
To verify that the activity of AG-08 arises from its supramolecular structures, freshly prepared AG-08 solutions were filtered using 220 nm-filters to remove AG-08 supramolecular particles from medium, and the filtrates were analyzed for their cytotoxicity. […] Next, Tween-20 was utilized as a non-ionic detergent to block particle formation, and AG-08-mediated cell death was inhibited as expected (Fig. 1E). […]

Cc1ccc(S(=O)(=O)OC2CCC3(C)C4=CCC5(C)C(C6(C)CCC(C(C)(C)O)O6)C(O)CC5(C)C4C=CC3C2(C)C)cc1 (stereo not shown) [AG-08]
cytotoxicity of filtrate after 220 nm filtration: no longer exhibited any cytotoxicity
